Article PMC4788153, “Impact of Cytochrome P450 2D6 Function on the Chiral Blood Plasma Pharmacokinetics of 3,4-Methylenedioxymethamphetamine (MDMA) and Its Phase I and II Metabolites in Humans” (PLoS ONE, 2016)
Counter-ions that a name gives are not always drawn. Like-named read-outs stand apart in the source and are kept apart here.

Assay: Chiral plasma pharmacokinetics of MDMA and its phase I and II metabolites after controlled MDMA administration
Type: in vivo, human
Settings: for AUC(0-t) / Cmax / half-life / Tmax: human, plasma; for change in AUC24 after bupropion pretreatment / change in Cmax after bupropion pretreatment: bupropion+MDMA vs placebo+MDMA, unsigned = increase
Method: Blood plasma samples were analyzed non-stereoselectively as reported previously and reanalyzed for the present report using liquid chromatography-mass spectrometry/mass spectrometry after chiral derivatization with Marfey’s reagent as described previously. The method was fully validated, including selectivity, recovery, matrix effects, bias and imprecision, stability, and limit of quantification.

[1] = both sexes, oral, 125 mg, placebo+MDMA (125 mg), CYP2D6 EM, n=13, plasma, read-out: AUC0-24h S
[2] = both sexes, oral, 125 mg, placebo+MDMA (125 mg), CYP2D6 EM, n=13, plasma, read-out: Cmax S
[3] = both sexes, oral, 125 mg, placebo+MDMA (125 mg), CYP2D6 EM, n=13, plasma, read-out: t1/2 S (converted)
[4] = both sexes, oral, 125 mg, placebo+MDMA (125 mg), CYP2D6 EM, n=13, plasma, read-out: tmax S
[5] = both sexes, oral, bupropion+MDMA (125 mg), CYP2D6 EM (EM/Bup), n=13, plasma, read-out: AUC0-24h S
[6] = both sexes, oral, bupropion+MDMA (125 mg), CYP2D6 EM (EM/Bup), n=13, plasma, read-out: Cmax S
[7] = both sexes, oral, bupropion+MDMA (125 mg), CYP2D6 EM (EM/Bup), n=13, plasma, read-out: t1/2 S (converted)
[8] = both sexes, oral, bupropion+MDMA (125 mg), CYP2D6 EM (EM/Bup), n=13, plasma, read-out: tmax S
[9] = bupropion+MDMA (125 mg), CYP2D6 EM (EM/Bup), n=13, plasma
[10] = im, placebo+MDMA (125 mg), CYP2D6 IM, n=3, plasma, read-out: AUC0-24h S
[11] = im, placebo+MDMA (125 mg), CYP2D6 IM, n=3, plasma, read-out: Cmax S
[12] = im, placebo+MDMA (125 mg), CYP2D6 IM, n=3, plasma, read-out: t1/2 S (converted)
[13] = im, placebo+MDMA (125 mg), CYP2D6 IM, n=3, plasma, read-out: tmax S
[14] = placebo+MDMA (125 mg), CYP2D6 EM, n=13, plasma
[15] = placebo+MDMA (125 mg), CYP2D6 IM, n=3, plasma
[16] = placebo-pretreated EMs, same-configuration MDMA enantiomer
[17] = both sexes, oral, 125 mg, placebo+MDMA (125 mg), CYP2D6 EM, n=13, plasma, read-out: AUC0-24h R
[18] = both sexes, oral, 125 mg, placebo+MDMA (125 mg), CYP2D6 EM, n=13, plasma, read-out: tmax R
[19] = both sexes, oral, bupropion+MDMA (125 mg), CYP2D6 EM (EM/Bup), n=13, plasma, read-out: AUC0-24h R
[20] = both sexes, oral, bupropion+MDMA (125 mg), CYP2D6 EM (EM/Bup), n=13, plasma, read-out: Cmax R
[21] = both sexes, oral, bupropion+MDMA (125 mg), CYP2D6 EM (EM/Bup), n=13, plasma, read-out: t1/2 R (converted)
[22] = both sexes, oral, bupropion+MDMA (125 mg), CYP2D6 EM (EM/Bup), n=13, plasma, read-out: tmax R
[23] = both sexes, oral, placebo+MDMA (125 mg), CYP2D6 EM, n=13, plasma, read-out: Cmax R
[24] = both sexes, oral, placebo+MDMA (125 mg), CYP2D6 EM, n=13, plasma, read-out: t1/2 R (converted)
[25] = bupropion vs placebo pretreatment, CYP2D6 EMs
[26] = bupropion-pretreated CYP2D6 EMs

## CN[C@@H](C)Cc1ccc(O)c(OS(=O)(=O)O)c1 [S-DHMA 3-sulfate]
IMs
  metabolite/MDMA ratio, mean constant (after approximately 2 h): 0.42
  metabolite/MDMA ratio, mean initial (highest, first hour): 8.8
[1]
  AUC(0-t): 6.3 µM·h
[2]
  Cmax: 590 nM
[3]
  half-life: 7.3 h
[4]
  Tmax: 1.5 h
[5]
  AUC(0-t): 2.8 µM·h
[6]
  Cmax: 200 nM
[7]
  half-life: 11.3 h
[8]
  Tmax: 2.4 h
[9]
  AUCtotal S: 3.7 (2.1) μmol/l*h-1
CYP2D6 EMs
  change in AUC24 after bupropion pretreatment: -56%
  change in Cmax after bupropion pretreatment: -67%
bupropion-pretreated EMs
  metabolite/MDMA ratio, mean constant (after approximately 2 h): 0.34
  metabolite/MDMA ratio, mean initial (highest, first hour): 1.8
[10]
  AUC(0-t): 3 µM·h
[11]
  Cmax: 280 nM
[12]
  half-life: 7 h
[13]
  Tmax: 1.9 h
[14]
  AUCtotal S: 7.1 (3.1) μmol/l*h-1
[15]
  AUCtotal S: 3.3 (1.1) μmol/l*h-1
placebo-pretreated EMs
  metabolite/MDMA ratio, mean constant (after approximately 2 h): 1.1
[16]
  metabolite/MDMA ratio, mean initial (highest, first hour): 33

## CN[C@H](C)Cc1ccc2c(c1)OCO2 [R-MDMA, 3,4-methylenedioxymethamphetamine]
[17]
  AUC(0-t): 8.7 µM·h
[18]
  Tmax: 2.9 h
[19]
  AUC(0-t): 10.9 µM·h
[20]
  Cmax: 750 nM
[21]
  half-life: 10.8 h
[22]
  Tmax: 3.3 h
[23]
  Cmax: 690 nM
[24]
  half-life: 8.2 h
[25]
  prolongation of t1/2 after bupropion pretreatment: 31%
  reduction of Cl/F after bupropion pretreatment: -23%
[9]
  AUCtotal R: 14.2 (3.7) μmol/l*h-1
  CL/F R: 31.3 (8.2) l/h
CYP2D6 EMs
  change in AUC24 after bupropion pretreatment: 25%
  change in Cmax after bupropion pretreatment: 9%
[14]
  AUCtotal R: 10.4 (3.6) μmol/l*h-1
  CL/F R: 40.4 (14.2) l/h
[15]
  AUCtotal R: 14.5 (4.3) μmol/l*h-1
  CL/F R: 29.8 (7.4) l/h

## CNC(C)Cc1ccc(OS(=O)(=O)O)c(OC)c1 (stereo not shown) [HMMA sulfate]
Bupropion vs placebo pretreatment
  change of R/S ratio for Cmax after bupropion pretreatment: +21%
Metabolite stereoisomers, bupropion pretreatment vs placebo (abstract)
  reduction of Cmax by bupropion: approximately 40%

## CNC(C)Cc1ccc(OC2OC(C(=O)O)C(O)C(O)C2O)c(OC)c1 (stereo not shown) [R-HMMA glucuronide]
IMs
  metabolite/MDMA ratio, mean constant (after approximately 2 h): 0.05
  metabolite/MDMA ratio, mean initial (highest, first hour): 0.05
[17]
  AUC(0-t): 3.3 µM·h
[18]
  Tmax: 3.7 h
[19]
  AUC(0-t): 0.96 µM·h
[20]
  Cmax: 49 nM
[21]
  half-life: 31.7 h
[22]
  Tmax: 7.6 h
[23]
  Cmax: 210 nM
[24]
  half-life: 16 h
[9]
  AUCtotal R: 2.3 (1.5) μmol/l*h-1
CYP2D6 EMs
  change in AUC24 after bupropion pretreatment: -71%
  change in Cmax after bupropion pretreatment: -77%
[26]
  tonset (time of first detection), mean: 0.73 h
bupropion-pretreated EMs
  metabolite/MDMA ratio, mean constant (after approximately 2 h): 0.05
  metabolite/MDMA ratio, mean initial (highest, first hour): 0.09
[14]
  AUCtotal R: 5.5 (4.3) μmol/l*h-1
[15]
  AUCtotal R: 2.0 (1.7) μmol/l*h-1
placebo-pretreated CYP2D6 EMs
  tonset (time of first detection), mean: 0.41 h
placebo-pretreated EMs
  metabolite/MDMA ratio, mean constant (after approximately 2 h): 0.40
[16]
  metabolite/MDMA ratio, mean initial (highest, first hour): 1.3

## CC(N)Cc1ccc2c(c1)OCO2 (stereo not shown) [S-MDA, 3,4-methylenedioxyamphetamine]
[1]
  AUC(0-t): 0.61 µM·h
[2]
  Cmax: 41 nM
[3]
  half-life: 9.2 h
[4]
  Tmax: 4.6 h
[5]
  AUC(0-t): 0.49 µM·h
[6]
  Cmax: 31 nM
[7]
  half-life: 11.1 h
[8]
  Tmax: 5.2 h
[9]
  AUCtotal S: 0.69 (0.17) μmol/l*h-1
CYP2D6 EMs
  change in AUC24 after bupropion pretreatment: -20%
  change in Cmax after bupropion pretreatment: -24%
[10]
  AUC(0-t): 0.65 µM·h
[11]
  Cmax: 42 nM
[12]
  half-life: 10.6 h
[13]
  Tmax: 4.4 h
[14]
  AUCtotal S: 0.76 (0.27) μmol/l*h-1
[15]
  AUCtotal S: 0.87 (0.31) μmol/l*h-1

## CNC(C)Cc1ccc(OC2OC(C(=O)O)C(O)C(O)C2O)c(OC)c1 (stereo not shown) [S-HMMA glucuronide]
IMs
  metabolite/MDMA ratio, mean constant (after approximately 2 h): 0.20
  metabolite/MDMA ratio, mean initial (highest, first hour): 0.30
[1]
  AUC(0-t): 5.2 µM·h
[2]
  Cmax: 490 nM
[3]
  half-life: 6.1 h
[4]
  Tmax: 2.9 h
[5]
  AUC(0-t): 1.3 µM·h
[6]
  Cmax: 88 nM
[7]
  half-life: 9 h
[8]
  Tmax: 4.9 h
[9]
  AUCtotal S: 1.7 (1.0) μmol/l*h-1
CYP2D6 EMs
  change in AUC24 after bupropion pretreatment: -74%
  change in Cmax after bupropion pretreatment: -82%
[26]
  tonset (time of first detection), mean: 0.71 h
bupropion-pretreated EMs
  metabolite/MDMA ratio, mean constant (after approximately 2 h): 0.20
  metabolite/MDMA ratio, mean initial (highest, first hour): 0.10
[10]
  AUC(0-t): 1.3 µM·h
[11]
  Cmax: 99 nM
[12]
  half-life: 7.1 h
[13]
  Tmax: 4 h
[14]
  AUCtotal S: 5.5 (3.9) μmol/l*h-1
[15]
  AUCtotal S: 1.5 (0.83) μmol/l*h-1
placebo-pretreated CYP2D6 EMs
  tonset (time of first detection), mean: 0.38 h
placebo-pretreated EMs
  metabolite/MDMA ratio, mean constant (after approximately 2 h): 1.3
[16]
  metabolite/MDMA ratio, mean initial (highest, first hour): 5.6

## CN[C@H](C)Cc1ccc(O)c(OS(=O)(=O)O)c1 [R-DHMA 3-sulfate]
IMs
  metabolite/MDMA ratio, mean constant (after approximately 2 h): 0.10
  metabolite/MDMA ratio, mean initial (highest, first hour): 1.9
[17]
  AUC(0-t): 2.4 µM·h
[18]
  Tmax: 2.8 h
[19]
  AUC(0-t): 0.96 µM·h
[20]
  Cmax: 50 nM
[21]
  half-life: 46.2 h
[22]
  Tmax: 3.8 h
[23]
  Cmax: 150 nM
[24]
  half-life: 20.2 h
[9]
  AUCtotal R: 3.1 (2.1) μmol/l*h-1
CYP2D6 EMs
  change in AUC24 after bupropion pretreatment: -61%
  change in Cmax after bupropion pretreatment: -68%
bupropion-pretreated EMs
  metabolite/MDMA ratio, mean constant (after approximately 2 h): 0.10
  metabolite/MDMA ratio, mean initial (highest, first hour): 0.4
[14]
  AUCtotal R: 4.7 (2.5) μmol/l*h-1
[15]
  AUCtotal R: 2.6 (2.4) μmol/l*h-1
placebo-pretreated EMs
  metabolite/MDMA ratio, mean constant (after approximately 2 h): 0.22
[16]
  metabolite/MDMA ratio, mean initial (highest, first hour): 9.9

## CN[C@H](C)Cc1ccc(OS(=O)(=O)O)c(O)c1 [R-DHMA 4-sulfate]
IMs
  metabolite/MDMA ratio, mean constant (after approximately 2 h): 0.05
  metabolite/MDMA ratio, mean initial (highest, first hour): 0.94
[17]
  AUC(0-t): 1.3 µM·h
[18]
  Tmax: 2 h
[19]
  AUC(0-t): 0.71 µM·h
[20]
  Cmax: 37 nM
[21]
  half-life: 49.9 h
[22]
  Tmax: 3.2 h
[23]
  Cmax: 80 nM
[24]
  half-life: 17.5 h
[9]
  AUCtotal R: 2.9 (2.2) μmol/l*h-1
CYP2D6 EMs
  change in AUC24 after bupropion pretreatment: -43%
  change in Cmax after bupropion pretreatment: -54%
bupropion-pretreated EMs
  metabolite/MDMA ratio, mean constant (after approximately 2 h): 0.05
  metabolite/MDMA ratio, mean initial (highest, first hour): 0.89
[14]
  AUCtotal R: 2.4 (1.7) μmol/l*h-1
[15]
  AUCtotal R: 1.5 (1.0) μmol/l*h-1
placebo-pretreated EMs
  metabolite/MDMA ratio, mean constant (after approximately 2 h): 0.13
[16]
  metabolite/MDMA ratio, mean initial (highest, first hour): 4.9

## CC(N)Cc1ccc2c(c1)OCO2 (stereo not shown) [R-MDA, 3,4-methylenedioxyamphetamine]
[17]
  AUC(0-t): 0.26 µM·h
[18]
  Tmax: 12.5 h
[19]
  AUC(0-t): 0.19 µM·h
[20]
  Cmax: 10 nM
[22]
  Tmax: 14.9 h
[23]
  Cmax: 14 nM
CYP2D6 EMs
  change in AUC24 after bupropion pretreatment: -26%
  change in Cmax after bupropion pretreatment: -27%

## CN[C@@H](C)Cc1ccc(OS(=O)(=O)O)c(O)c1 [S-DHMA 4-sulfate]
IMs
  metabolite/MDMA ratio, mean constant (after approximately 2 h): 0.05
  metabolite/MDMA ratio, mean initial (highest, first hour): 0.91
[1]
  AUC(0-t): 0.64 µM·h
[2]
  Cmax: 55 nM
[3]
  half-life: 8.1 h
[4]
  Tmax: 1.7 h
[5]
  AUC(0-t): 0.32 µM·h
[6]
  Cmax: 21 nM
[7]
  half-life: 14.3 h
[8]
  Tmax: 2.4 h
[9]
  AUCtotal S: 0.48 (0.19) μmol/l*h-1
CYP2D6 EMs
  change in AUC24 after bupropion pretreatment: -50%
  change in Cmax after bupropion pretreatment: -61%
bupropion-pretreated EMs
  metabolite/MDMA ratio, mean constant (after approximately 2 h): 0.04
  metabolite/MDMA ratio, mean initial (highest, first hour): 0.60
[10]
  AUC(0-t): 0.4 µM·h
[11]
  Cmax: 29 nM
[12]
  half-life: 12.1 h
[13]
  Tmax: 2.1 h
[14]
  AUCtotal S: 0.80 (0.37) μmol/l*h-1
[15]
  AUCtotal S: 0.59 (0.30) μmol/l*h-1
placebo-pretreated EMs
  metabolite/MDMA ratio, mean constant (after approximately 2 h): 0.11
[16]
  metabolite/MDMA ratio, mean initial (highest, first hour): 3.8
